Common to all, as to type: biochemical
The target of assay [1] is T1, JAK1 (Homo sapiens, UniProt P23458).
T1 construct: purchased Carna Biosciences, Inc
Put plainly: JAK tyrosine kinase inhibitory activity in the presence of 1 mM ATP (ELISA), JAK1. The gist of the method:
(§1)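 Kinase reactions ran on streptavidin-coated plates in 15 mM Tris-HCl pH 7.5, 0.01% Tween-20, 1 mM DTT, 30 °C for 1 h. Enzyme was prediluted to 7.5 nM (JAK1) or 0.75 nM (JAK2, JAK3) before addition. Phosphotyrosine was detected with HRP anti-pTyr antibody and TMB at A450.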
In general terms: In an ELISA, binding on a coated surface is turned into a signal by an enzyme label.

Assay [2] addresses T2, JAK3 (Homo sapiens, UniProt P52333).
T2 construct: purchased Carna Biosciences, Inc
T2 sequence (P52333 1-1124): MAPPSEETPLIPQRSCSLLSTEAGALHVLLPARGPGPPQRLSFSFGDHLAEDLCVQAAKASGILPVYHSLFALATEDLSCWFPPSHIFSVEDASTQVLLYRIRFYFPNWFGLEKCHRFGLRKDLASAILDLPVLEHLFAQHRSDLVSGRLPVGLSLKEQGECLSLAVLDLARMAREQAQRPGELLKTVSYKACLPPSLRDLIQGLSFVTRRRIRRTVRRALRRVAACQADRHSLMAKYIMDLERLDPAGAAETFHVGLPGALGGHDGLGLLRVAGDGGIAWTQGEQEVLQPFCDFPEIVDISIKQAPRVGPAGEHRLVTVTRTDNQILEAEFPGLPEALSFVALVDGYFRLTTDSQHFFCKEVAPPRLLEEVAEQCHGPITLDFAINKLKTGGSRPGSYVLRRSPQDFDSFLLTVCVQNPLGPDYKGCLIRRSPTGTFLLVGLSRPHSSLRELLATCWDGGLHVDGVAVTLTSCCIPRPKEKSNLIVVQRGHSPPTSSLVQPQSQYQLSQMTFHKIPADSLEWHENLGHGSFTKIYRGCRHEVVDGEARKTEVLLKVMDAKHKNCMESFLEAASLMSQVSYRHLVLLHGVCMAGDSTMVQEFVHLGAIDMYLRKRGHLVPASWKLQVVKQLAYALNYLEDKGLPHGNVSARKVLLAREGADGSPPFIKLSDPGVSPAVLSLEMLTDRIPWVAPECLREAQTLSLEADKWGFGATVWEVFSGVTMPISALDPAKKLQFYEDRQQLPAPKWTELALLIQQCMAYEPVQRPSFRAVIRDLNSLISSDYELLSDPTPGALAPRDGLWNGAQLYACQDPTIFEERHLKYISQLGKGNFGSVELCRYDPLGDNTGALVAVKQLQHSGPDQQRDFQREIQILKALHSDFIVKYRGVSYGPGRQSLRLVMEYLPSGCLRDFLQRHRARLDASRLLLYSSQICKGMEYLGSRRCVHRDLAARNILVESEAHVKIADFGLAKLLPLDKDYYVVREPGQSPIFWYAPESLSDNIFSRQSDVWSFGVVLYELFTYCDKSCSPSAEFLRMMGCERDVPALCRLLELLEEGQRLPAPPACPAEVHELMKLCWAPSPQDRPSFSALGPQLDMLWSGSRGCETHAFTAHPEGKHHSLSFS
Put plainly: JAK tyrosine kinase inhibitory activity in the presence of 1 mM ATP (ELISA), JAK3. The gist of the method: as §1

Assay [3] has as its target T3, JAK2 (Homo sapiens, UniProt O60674).
T3 construct: purchased Carna Biosciences, Inc
Put plainly: JAK tyrosine kinase inhibitory activity in the presence of 1 mM ATP (ELISA), JAK2. The gist of the method:
as §1

Where only a bound is given, the exact number is not on record here.

T3 sequence (O60674 whole entry): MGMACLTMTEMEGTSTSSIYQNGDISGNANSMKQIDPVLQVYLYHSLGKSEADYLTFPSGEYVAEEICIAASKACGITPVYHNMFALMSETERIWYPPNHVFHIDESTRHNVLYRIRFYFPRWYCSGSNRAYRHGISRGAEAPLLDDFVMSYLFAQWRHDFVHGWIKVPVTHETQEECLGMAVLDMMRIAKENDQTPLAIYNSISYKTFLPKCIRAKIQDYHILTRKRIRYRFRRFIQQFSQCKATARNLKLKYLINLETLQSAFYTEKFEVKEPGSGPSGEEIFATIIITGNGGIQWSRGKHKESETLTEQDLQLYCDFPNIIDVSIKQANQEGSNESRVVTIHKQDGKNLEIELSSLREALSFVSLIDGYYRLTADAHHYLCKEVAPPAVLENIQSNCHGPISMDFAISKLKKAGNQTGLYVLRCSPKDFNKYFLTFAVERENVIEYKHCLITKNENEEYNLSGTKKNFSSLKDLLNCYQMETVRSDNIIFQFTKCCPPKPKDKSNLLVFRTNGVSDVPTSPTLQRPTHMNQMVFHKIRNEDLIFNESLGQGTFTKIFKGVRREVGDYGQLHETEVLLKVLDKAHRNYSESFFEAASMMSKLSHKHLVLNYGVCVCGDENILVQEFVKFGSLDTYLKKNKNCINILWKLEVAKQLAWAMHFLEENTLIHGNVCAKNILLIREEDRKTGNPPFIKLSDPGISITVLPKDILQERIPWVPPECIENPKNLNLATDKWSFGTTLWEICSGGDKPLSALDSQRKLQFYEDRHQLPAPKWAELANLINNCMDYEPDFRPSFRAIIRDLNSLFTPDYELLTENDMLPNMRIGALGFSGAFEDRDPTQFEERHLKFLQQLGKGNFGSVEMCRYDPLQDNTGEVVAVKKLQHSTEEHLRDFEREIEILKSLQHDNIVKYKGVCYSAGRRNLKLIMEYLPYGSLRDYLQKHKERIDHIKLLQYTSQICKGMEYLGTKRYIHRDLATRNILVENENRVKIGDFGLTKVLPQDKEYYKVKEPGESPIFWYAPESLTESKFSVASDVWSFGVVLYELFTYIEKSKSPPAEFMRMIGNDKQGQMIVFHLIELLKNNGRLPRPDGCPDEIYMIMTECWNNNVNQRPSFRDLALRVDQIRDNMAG
T1 sequence (P23458 whole entry): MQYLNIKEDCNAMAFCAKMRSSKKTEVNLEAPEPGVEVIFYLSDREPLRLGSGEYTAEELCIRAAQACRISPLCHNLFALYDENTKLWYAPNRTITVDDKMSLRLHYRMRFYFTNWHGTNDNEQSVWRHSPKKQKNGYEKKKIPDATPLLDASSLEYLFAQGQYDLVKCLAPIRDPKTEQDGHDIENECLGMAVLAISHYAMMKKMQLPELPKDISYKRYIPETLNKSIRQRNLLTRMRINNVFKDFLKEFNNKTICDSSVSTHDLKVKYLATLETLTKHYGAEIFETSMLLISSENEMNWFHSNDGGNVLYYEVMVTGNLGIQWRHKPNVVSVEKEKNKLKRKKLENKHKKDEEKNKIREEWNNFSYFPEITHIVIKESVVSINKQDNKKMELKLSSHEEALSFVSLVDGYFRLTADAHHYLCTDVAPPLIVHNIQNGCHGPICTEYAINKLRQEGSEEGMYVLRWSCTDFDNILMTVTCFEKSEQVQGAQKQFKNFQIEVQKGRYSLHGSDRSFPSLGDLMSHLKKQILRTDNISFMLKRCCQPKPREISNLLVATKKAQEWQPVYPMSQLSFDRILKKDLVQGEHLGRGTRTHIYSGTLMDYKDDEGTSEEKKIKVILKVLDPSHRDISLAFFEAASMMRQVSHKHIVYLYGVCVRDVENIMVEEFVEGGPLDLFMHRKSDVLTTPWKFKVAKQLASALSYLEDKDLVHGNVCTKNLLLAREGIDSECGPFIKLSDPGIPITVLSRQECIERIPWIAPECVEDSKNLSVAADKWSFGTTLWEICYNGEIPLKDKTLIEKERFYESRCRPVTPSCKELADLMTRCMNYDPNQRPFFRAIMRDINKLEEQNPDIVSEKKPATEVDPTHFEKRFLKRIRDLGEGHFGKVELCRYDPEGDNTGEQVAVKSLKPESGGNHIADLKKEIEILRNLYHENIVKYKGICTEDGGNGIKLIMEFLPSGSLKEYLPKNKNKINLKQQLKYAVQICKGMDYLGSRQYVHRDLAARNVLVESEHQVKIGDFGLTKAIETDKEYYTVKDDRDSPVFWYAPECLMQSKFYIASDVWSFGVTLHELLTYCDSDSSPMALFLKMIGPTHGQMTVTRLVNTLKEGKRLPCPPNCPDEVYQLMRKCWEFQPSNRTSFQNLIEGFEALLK

With `CC(=O)N1CCC(Nc2cc(C(=O)N3CCC(NC(=O)C4CC4)CC3)nc(-c3cnn4ccsc34)n2)CC1` [Example 188, N-(1-6-[(l-acetylpiperidin-4-yl)amino]-2-(pyrazolo[5,1-b][1,3]thiazol-7-yl)pyrimidine-4-carbonylpiperidin-4-yl)cyclopropanecarboxamide], the IC50 in assay [1] is 1300 nM; in assay [2] it was more than 10000 nM; in assay [3] it was more than 10000 nM.
Turning to `CS(=O)(=O)N1CCC(Nc2cc(C(=O)N3CCC(NC(=O)C4CC4)CC3)nc(-c3cnn4ccsc34)n2)CC1` [Example 189, N-1-[6-[1-(methanesulfonyl)piperidin-4-yl]amino-2-(pyrazolo[5,1-b][1,3]thiazol-7-yl)pyrimidine-4-carbonyl]piperidin-4-ylcyclopropanecarboxamide], the IC50 is 1100 nM in assay [1], more than 10000 nM in assay [2] and more than 10000 nM in assay [3].
As to `CCCCC(=O)NC1CCN(C(=O)c2cc(N[C@@H](C)C3CC3)nc(-c3cnn4ccsc34)n2)CC1` [Example 190, N-1-[6-[(1S)-1-cyclopropylethyl]amino-2-(pyrazolo[5,1-b][1,3]thiazol-7-yl)pyrimidine-4-carbonyl]piperidin-4-ylpentanamide], the IC50 amounted to 65 nM in assay [1], 1000 nM in assay [2] and 6600 nM in assay [3].
In the case of `N#CCC(=O)N1CC[C@@H](Nc2cc(C(=O)N3CCC(NC(=O)C4CC4)CC3)nc(-c3cnn4ccsc34)n2)C1` [Example 191, N-1-[6-[(3R)-1-(cyanoacetyl)pyrrolidin-3-yl]amino-2-(pyrazolo[5,1-b][1,3]thiazol-7-yl)pyrimidine-4-carbonyl]piperidin-4-ylcyclopropanecarboxamide], the IC50 in assay [1] is 52 nM; in assay [2], more than 10000 nM; in assay [3], more than 10000 nM.
Turning to `COC(=O)NC1CCN(C(=O)c2cc(NCC3CCN(C(=O)OC)CC3)nc(-c3cnn4ccsc34)n2)CC1` [Example 192, Methyl 4-([6-4-[(methoxycarbonyl)amino]piperidine-1-carbonyl-2-(pyrazolo[5,1-b][1,3]thiazol-7-yl)pyrimidin-4-yl]aminomethyl)piperidine-1-carboxylate], the IC50 was 690 nM in assay [1], more than 10000 nM in assay [2] and more than 10000 nM in assay [3].
`CC(C)S(=O)(=O)N1CCC(Nc2cc(C(=O)N3CCC(NC(=O)C4CC4)CC3)nc(-c3cnn4ccsc34)n2)CC1` [Example 193, N-1-[6-[1-(propane-2-sulfonyl)piperidin-4-yl]amino-2-(pyrazolo[5,1-b][1,3]thiazol-7-yl)pyrimidine-4-carbonyl]piperidin-4-ylcyclopropanecarboxamide]: the results for the IC50 in assay [1], in assay [2] and in assay [3] were 470 nM, more than 10000 nM and more than 10000 nM, respectively.
For the compound `COC(=O)N1CCC(Nc2cc(C(=O)N3CCC(NC(=O)C4CC4)CC3)nc(-c3cnn4ccsc34)n2)CC1` [Example 194, Methyl 4-[6-4-[(cyclopropanecarbonyl)amino]piperidine-1-carbonyl-2-(pyrazolo[5,1-b][1,3]thiazol-7-yl)pyrimidin-4-yl]aminopiperidine-1-carboxylate], the IC50 was 260 nM in assay [1], more than 10000 nM in assay [2] and more than 10000 nM in assay [3].
For `CCCCCCC(=O)NC1CCN(C(=O)c2cc(N[C@H](C)C(C)(C)C)nc(-c3cnn4ccsc34)n2)CC1` [Example 195, N-1-[6-[(2R)-3,3-dimethylbutan-2-yl]amino-2-(pyrazolo[5,1-b][1,3]thiazol-7-yl)pyrimidine-4-carbonyl]piperidin-4-ylheptanamide], the IC50 in assay [1] amounted to 310 nM; in assay [2] it was 4900 nM; in assay [3] it was 9000 nM.
The corresponding values for `C[C@@H](Nc1cc(C(=O)N2CCC(NC(=O)c3ccccc3Cl)CC2)nc(-c2cnn3ccsc23)n1)C(C)(C)C` [Example 196, 2-Chloro-N-1-[6-[(2R)-3,3-dimethylbutan-2-yl]amino-2-(pyrazolo[5,1-b][1,3]thiazol-7-yl)pyrimidine-4-carbonyl]piperidin-4-ylbenzamide] are 110 nM, 7300 nM and 9100 nM.
The corresponding values for `C[C@@H](Nc1cc(C(=O)N2CCC(NC(=O)c3ccc(F)cc3)CC2)nc(-c2cnn3ccsc23)n1)C(C)(C)C` [Example 197, N-1-[6-[(2R)-3,3-dimethylbutan-2-yl]amino-2-(pyrazolo[5,1-b][1,3]thiazol-7-yl)pyrimidine-4-carbonyl]piperidin-4-yl-4-fluorobenzamide] are 120 nM, 3800 nM and 8200 nM.
The matching figures for `CCC(=O)N1CCC(Nc2cc(C(=O)N3CCC(NC(=O)OC)CC3)nc(-c3cnn4ccsc34)n2)CC1` [Example 198, Methyl (1-6-[(1-propanoylpiperidin-4-yl)amino]-2-(pyrazolo[5,1-b][1,3]thiazol-7-yl)pyrimidine-4-carbonylpiperidin-4-yl)carbamate]: 1500 nM, more than 10000 nM and more than 10000 nM.
As for `COC(=O)NC1CCN(C(=O)c2cc(NC3CCN(C(=O)CC#N)CC3)nc(-c3cnn4ccsc34)n2)CC1` [Example 199, Methyl (1-{[6-{[1-(cyanoacetyl)piperidin-4-yl]amino}-2-(pyrazolo[5,1-b][1,3]thiazol-7-yl)pyrimidin-4-yl]carbonyl}piperidin-4-yl)carbamate], the figures for the IC50 in assay [1], in assay [2] and in assay [3] were 2800 nM, more than 10000 nM and more than 10000 nM, respectively.
In the case of `COC(=O)NC1CCN(C(=O)c2cc(NC3CCN(S(C)(=O)=O)CC3)nc(-c3cnn4ccsc34)n2)CC1` [Example 200, Methyl 1-[6-[1-(methanesulfonyl)piperidin-4-yl]amino-2-(pyrazolo[5,1-b][1,3]thiazol-7-yl)pyrimidine-4-carbonyl]piperidin-4-ylcarbamate], the IC50 was 2400 nM in assay [1], more than 10000 nM in assay [2] and more than 10000 nM in assay [3].
On to `COC(=O)NC1CCN(C(=O)c2cc(N[C@@H]3CCN(C(=O)CC#N)C3)nc(-c3cnn4ccsc34)n2)CC1` [Example 201, Methyl 1-[6-[(3R)-1-(cyanoacetyl)pyrrolidin-3-yl]amino-2-(pyrazolo[5,1-b][1,3]thiazol-7-yl)pyrimidine-4-carbonyl]piperidin-4-ylcarbamate], for which the IC50 is 120 nM in assay [1], more than 10000 nM in assay [2] and more than 10000 nM in assay [3].
Turning to `CCC(=O)NC1CCN(C(=O)c2cc(N[C@@H]3CCN(C(=O)CC#N)C3)nc(-c3cnn4ccsc34)n2)CC1` [Example 202, N-1-[6-[(3R)-1-(cyanoacetyl)pyrrolidin-3-yl]amino-2-(pyrazolo[5,1-b][1,3]thiazol-7-yl)pyrimidine-4-carbonyl]piperidin-4-ylpropanamide], the IC50 in assay [1] was 300 nM; in assay [2] it was more than 10000 nM; in assay [3] it was more than 10000 nM.
Consider `CCOC(=O)NC1CCN(C(=O)c2cc(N[C@@H]3CCN(C(=O)CC#N)C3)nc(-c3cnn4ccsc34)n2)CC1` [Example 203, Ethyl 1-[6-[(3R)-1-(cyanoacetyl)pyrrolidin-3-yl]amino-2-(pyrazolo[5,1-b][1,3]thiazol-7-yl)pyrimidine-4-carbonyl]piperidin-4-ylcarbamate], for which the IC50 in assay [1] was 70 nM; in assay [2] it was more than 10000 nM; in assay [3] it was more than 10000 nM.
With `N#CCC(=O)N1CC[C@H](Nc2cc(C(=O)N3CCC(NC(=O)C4CC4)CC3)nc(-c3cnn4ccsc34)n2)C1` [Example 204, N-1-[6-[(3S)-1-(cyanoacetyl)pyrrolidin-3-yl]amino-2-(pyrazolo[5,1-b][1,3]thiazol-7-yl)pyrimidine-4-carbonyl]piperidin-4-ylcyclopropanecarboxamide], the values for the IC50 in assay [1], in assay [2] and in assay [3] were 2700 nM, more than 10000 nM and more than 10000 nM, respectively.
Take `COC(=O)NC1CCN(C(=O)c2cc(N[C@@H]3CCN(C(=O)C4CC4)C3)nc(-c3cnn4ccsc34)n2)CC1` [Example 205, Methyl 1-[6-[(3R)-1-(cyclopropanecarbonyl)pyrrolidin-3-yl]amino-2-(pyrazolo[5,1-b][1,3]thiazol-7-yl)pyrimidine-4-carbonyl]piperidin-4-ylcarbamate]: the IC50 is 850 nM in assay [1], more than 10000 nM in assay [2] and more than 10000 nM in assay [3].

One may read the IC50 as the concentration at which inhibition is half-maximal.

For the origin of these results see patent US9999622B2, “Pyrazolothiazole compound and medicine comprising same” (NIPPON SHINYAKU CO., LTD., priority 2014, dated 2018).
